This is an account of results in PubChem BioAssay (NCI).

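Cultured in 96-well plates, cells were exposed to test compound for 48 hours across five concentrations. At the TGI there is no net growth.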

Test systems include 786-0 renal; ACHN renal; BT-549 breast; CCRF-CEM leukemia; DU-145 prostate; HCT-15 colon; HOP-92 NSCLC; KM12 colon; M14 melanoma; MALME-3M melanoma; MCF7 breast; MDA-MB-435; OVCAR-3 ovarian; OVCAR-4 ovarian; OVCAR-8 ovarian; SK-MEL-2 melanoma; NCI-H226 lung; HL-60(TB) leukemia.
Common to all, as to experiment: growth of human tumour cells (NCI), 48 h

As to `COc1ccc(CN2C[C@H]3[C@@H](CC(=O)O[C@H]3C)CC2=O)cc1`, the TGI with 786-0 renal, with ACHN renal, with BT-549 breast, with CCRF-CEM leukemia, in the assay with DU-145 prostate and with HCT-15 colon was more than 100 µM each time. The TGI with HOP-92 NSCLC, in the assay with KM12 colon, in the assay with M14 melanoma, in the assay on MALME-3M melanoma, in the assay with MCF7 breast and in the assay on MDA-MB-435 was more than 100 µM throughout. The TGI with OVCAR-3 ovarian, in the assay with OVCAR-4 ovarian, with OVCAR-8 ovarian and in the assay with SK-MEL-2 melanoma was more than 100 µM throughout.

Regarding `O=C1/C(=C\c2ccc(Cl)cc2Cl)Sc2scc(-c3cccc([N+](=O)[O-])c3)[n+]21`, the TGI in the assay with 786-0 renal stood at 12.3 µM; with ACHN renal it was 12.6 µM; with BT-549 breast, 18.1 µM; in the assay with DU-145 prostate, 29 µM; in the assay on HCT-15 colon, 4.87 µM; in the assay with HOP-92 NSCLC, 18.3 µM. Besides, the TGI with KM12 colon worked out at 26.7 µM; with M14 melanoma, 19.9 µM; with MALME-3M melanoma it was 22.9 µM; with MCF7 breast, 15.5 µM; in the assay on MDA-MB-435, 27.8 µM; in the assay on NCI-H226 lung, 38.2 µM. The TGI in the assay with OVCAR-3 ovarian was determined as 23.4 µM; with OVCAR-4 ovarian, 38.1 µM; in the assay on OVCAR-8 ovarian, 29.1 µM; in the assay on SK-MEL-2 melanoma, 30.3 µM.

`C=CCCCC1CCCNC1=O` (stereo not given): the TGI with 786-0 renal, in the assay with ACHN renal, with BT-549 breast, in the assay with DU-145 prostate, in the assay on HCT-15 colon and in the assay with HOP-92 NSCLC was more than 100 µM throughout. Moreover, the TGI in the assay on KM12 colon, in the assay on M14 melanoma, in the assay on MCF7 breast, in the assay with MDA-MB-435, in the assay on NCI-H226 lung and in the assay on OVCAR-3 ovarian was more than 100 µM throughout. Further, the TGI in the assay with OVCAR-4 ovarian, with OVCAR-8 ovarian and in the assay on SK-MEL-2 melanoma was more than 100 µM each time.

For `COc1cc2cc(C(=O)N3CC(CCl)c4c3cc([N+](=O)[O-])c3ccccc43)[nH]c2c(OC)c1OC` (stereo not given), the TGI in the assay on 786-0 renal, with ACHN renal, in the assay on BT-549 breast, in the assay on CCRF-CEM leukemia, with DU-145 prostate and in the assay on HCT-15 colon was more than 100 µM in each case. For the same molecule, the TGI in the assay on HOP-92 NSCLC, with KM12 colon, in the assay on M14 melanoma, in the assay on MALME-3M melanoma, in the assay on MCF7 breast and with MDA-MB-435 was more than 100 µM in each case. The TGI in the assay with NCI-H226 lung, with OVCAR-3 ovarian, in the assay with OVCAR-4 ovarian, in the assay on OVCAR-8 ovarian and with SK-MEL-2 melanoma was more than 100 µM each time.

With `C=C1C(=O)O[C@@H]2[C@H]1C[C@@H](O)[C@H](C)[C@@](O)(C(=O)/C=C/C)[C@H]2OC(=O)C(C)CC` (stereo not given in full), the TGI in the assay with 786-0 renal came to 6.91 µM; with ACHN renal, 9.89 µM; in the assay on BT-549 breast, 13.3 µM; in the assay with CCRF-CEM leukemia, 0.229 µM; in the assay with DU-145 prostate it was 22.8 µM; in the assay on HCT-15 colon, 7.97 µM. The TGI with HOP-92 NSCLC came to 9.83 µM; in the assay on KM12 colon, 33.1 µM; with M14 melanoma, 9.03 µM; with MALME-3M melanoma, 4.42 µM; with MCF7 breast, 24.9 µM; in the assay on MDA-MB-435, 11.1 µM. For the same molecule, the TGI in the assay on NCI-H226 lung was more than 100 µM; in the assay with OVCAR-3 ovarian, 10.4 µM; with OVCAR-4 ovarian it was 22.8 µM; with OVCAR-8 ovarian, 6.4 µM; in the assay on SK-MEL-2 melanoma it was 84.1 µM.

As to `C/C=C/c1c(O)c(=O)c2c(OC)cc(OC)c3c4c(OC)cc(OC)c5c(=O)c(O)c(/C=C/C)c(c1c23)c54`, the TGI is 38.2 µM with 786-0 renal; 13.8 µM in the assay with ACHN renal; 14.3 µM in the assay with BT-549 breast; more than 100 µM in the assay on CCRF-CEM leukemia; 23.4 µM with DU-145 prostate; 35.5 µM in the assay on HOP-92 NSCLC. For the same molecule, the TGI in the assay with KM12 colon is 31.6 µM; in the assay on M14 melanoma it was more than 100 µM; in the assay on MALME-3M melanoma, 19.6 µM; with MCF7 breast, more than 100 µM; in the assay with MDA-MB-435, 26.1 µM; in the assay with NCI-H226 lung, 15.8 µM. Moreover, the TGI in the assay on OVCAR-3 ovarian is 15.5 µM; in the assay on OVCAR-4 ovarian, 29.5 µM; in the assay on OVCAR-8 ovarian, 31.4 µM; in the assay with SK-MEL-2 melanoma, 24.9 µM.

With `C#CCOC(=O)c1ccccc1O`, the TGI in the assay on 786-0 renal, in the assay with ACHN renal, with BT-549 breast, in the assay with CCRF-CEM leukemia, in the assay with DU-145 prostate and in the assay with HCT-15 colon was more than 100 µM each time. The TGI with HL-60(TB) leukemia, with HOP-92 NSCLC, with KM12 colon, in the assay with M14 melanoma, in the assay on MCF7 breast and in the assay with MDA-MB-435 was more than 100 µM throughout. Further, the TGI in the assay on NCI-H226 lung, in the assay with OVCAR-4 ovarian, with OVCAR-8 ovarian and with SK-MEL-2 melanoma was more than 100 µM throughout.

`Cc1ccc2c(c1)C(=O)/C(=C\c1ccccc1)CCS2(=O)=O`: the TGI was 25.2 µM with 786-0 renal; 24.2 µM with ACHN renal; more than 37.2 µM in the assay on BT-549 breast; 21.8 µM in the assay with DU-145 prostate; 19.7 µM in the assay on HCT-15 colon; more than 56.9 µM in the assay on HOP-92 NSCLC. Besides, the TGI in the assay with KM12 colon is 28.2 µM; with M14 melanoma, more than 53.8 µM; in the assay with MALME-3M melanoma it was 36.5 µM; with MCF7 breast, 18.9 µM; in the assay with MDA-MB-435, more than 61.4 µM; in the assay with NCI-H226 lung, more than 49.9 µM. Moreover, the TGI turned out to be 39.9 µM in the assay on OVCAR-3 ovarian, 46.5 µM in the assay on OVCAR-4 ovarian, 62.6 µM in the assay with OVCAR-8 ovarian and 89.8 µM in the assay with SK-MEL-2 melanoma.

Take `O=c1[nH]nc(Cc2ccccc2)n1/N=C/c1c(O)ccc2ccccc12`: the TGI in the assay with 786-0 renal is 30.3 µM; in the assay with ACHN renal, 84.5 µM; in the assay on BT-549 breast, more than 100 µM; in the assay with CCRF-CEM leukemia, more than 100 µM; in the assay on DU-145 prostate, more than 100 µM; in the assay on HCT-15 colon, more than 100 µM. Further, the TGI is 50.3 µM in the assay on HOP-92 NSCLC; 81.9 µM in the assay with KM12 colon; 50.7 µM with MALME-3M melanoma; more than 100 µM in the assay with MCF7 breast; more than 100 µM in the assay on MDA-MB-435; 73.6 µM in the assay with NCI-H226 lung. Besides, the TGI was 47.5 µM with OVCAR-3 ovarian, 67.1 µM in the assay with OVCAR-4 ovarian, 51.9 µM in the assay on OVCAR-8 ovarian and more than 100 µM in the assay on SK-MEL-2 melanoma.
